Assay results: patent US10294202B2, “Pyrrolidinones as herbicides” (FMC Corporation, priority 2013, dated 2019)

Key:
galium = test: Test C pre-/postemergence herbicide test; assay type: in vivo, Galium aparine
Outline: (§1)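 Visual rating, 0 (no effect) to 100 (complete control), versus untreated controls after 13 to 15 days in the greenhouse. Pre: seeds in loam/sand, sprayed at planting. Post: 1- to 4-leaf plants (2 to 18 cm) in peat-based mix. Compounds in non-phytotoxic solvent plus surfactant.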

oilseed rape = test: Test C pre-/postemergence herbicide test; assay type: in vivo, Brassica napus
Outline: as §1

johnsongrass = test: Test C pre-/postemergence herbicide test; assay type: in vivo, Sorghum halepense
Outline: as §1

lambsquarters = test: Test C pre-/postemergence herbicide test; assay type: in vivo, Chenopodium album
Outline: as §1

velvetleaf = test: Test C pre-/postemergence herbicide test; assay type: in vivo, Abutilon theophrasti
Outline: as §1

waterhemp = test: Test C pre-/postemergence herbicide test; assay type: in vivo, Amaranthus rudis
Outline: as §1

corn = test: Test C pre-/postemergence herbicide test; assay type: in vivo, Zea mays
Outline: as §1

foxtail, giant = test: Test C pre-/postemergence herbicide test; assay type: in vivo, Setaria faberii
Outline: as §1

wheat = test: Test A pre-/postemergence herbicide test; assay type: in vivo, Triticum aestivum
Outline: (§2)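 Seeds sown in loam soil/sand blend received a preemergence directed soil spray of test chemical in non-phytotoxic solvent with surfactant; postemergence plants (2–10 cm, one- to two-leaf stage) were sprayed with the same formulation. After about 10 days in greenhouse, injury was rated visually versus untreated controls, 0 (no effect) to 100 (complete control).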

pigweed [1] = test: Test C pre-/postemergence herbicide test; assay type: in vivo, Amaranthus retroflexus
Outline: as §1

pigweed [2] = test: Test A pre-/postemergence herbicide test; assay type: in vivo, Amaranthus retroflexus
Outline: as §2

nutsedge, yellow = test: Test C pre-/postemergence herbicide test; assay type: in vivo, Cyperus esculentus
Outline: as §1

[3] = Postemergence, 31 g ai/ha, scale 0 to 100 (0 no effect, 100 complete control)
[4] = Postemergence, 62 g ai/ha, scale 0 (no effect) to 100 (complete control)
[5] = Postemergence, 125 g ai/ha, scale 0 to 100 (0 no effect, 100 complete control)
[6] = Postemergence, 250 g ai/ha, scale 0 to 100 (0 no effect, 100 complete control)
[7] = Preemergence, 31 g ai/ha, scale 0 to 100, 0 is no effect and 100 is complete control
[8] = Preemergence, 62 g ai/ha, scale 0 to 100 (0 no effect, 100 complete control)
[9] = Preemergence, 125 g ai/ha, scale 0 to 100 (0 no effect, 100 complete control)
[10] = Postemergence, 125 g ai/ha, 0 to 100 scale, 0 is no effect, 100 is complete control
[11] = preemergence, 500 g ai/ha, 0 to 100 scale, 0 is no effect and 100 is complete control
[12] = Postemergence, 500 g ai/ha, 0 to 100 scale (0 no effect, 100 complete control)
[13] = Preemergence, 125 g ai/ha, 0 to 100 scale where 0 is no effect and 100 is complete control

## O=C1NCC(c2cccc(C(F)(F)F)c2)C1C(=O)Nc1ccc(F)cc1F (racemic) [Compound 207]
galium; [3]
  Plant response rating, Galium: 0
galium; [4]
  Plant response rating, Galium: 0
galium; [5]
  Plant response rating, Galium: 0
galium; [6]
  Plant response rating, Galium: 50
galium; [7]
  Galium plant response rating: 0
galium; [8]
  Galium plant response rating: 0
galium; [9]
  Plant response rating, Galium: 85
galium; Preemergence, 250 g ai/ha
  Plant response rating (scale of 0 to 100), Galium: 90
Oilseed rape; [3]
  Plant response rating, Oilseed Rape: 0
Oilseed rape; [4]
  Plant response rating, Oilseed Rape: 0
Oilseed rape; [5]
  Plant response rating, Oilseed Rape: 10
Oilseed rape; [6]
  Plant response rating, Oilseed Rape: 30
Oilseed rape; [7]
  Oilseed Rape plant response rating: 0
Oilseed rape; [8]
  Oilseed Rape plant response rating: 0
Oilseed rape; [9]
  Plant response rating, Oilseed Rape: 0
Oilseed rape; Preemergence, 250 g ai/ha
  Plant response rating (scale of 0 to 100), Oilseed Rape: 80
johnsongrass; [3]
  Plant response rating, Johnsongrass: 0
johnsongrass; [4]
  Plant response rating, Johnsongrass: 0
johnsongrass; [5]
  Plant response rating, Johnsongrass: 0
johnsongrass; [6]
  Plant response rating, Johnsongrass: 0
johnsongrass; [7]
  Johnsongrass plant response rating: 0
johnsongrass; [8]
  Johnsongrass plant response rating: 0
johnsongrass; [9]
  Plant response rating, Johnsongrass: 30
johnsongrass; Preemergence, 250 g ai/ha
  Plant response rating (scale of 0 to 100), Johnsongrass: 60
lambsquarters; [3]
  Plant response rating, Lambsquarters: 0
lambsquarters; [4]
  Plant response rating, Lambsquarters: 10
lambsquarters; [5]
  Plant response rating, Lambsquarters: 35
lambsquarters; [6]
  Plant response rating, Lambsquarters: 15
lambsquarters; [7]
  Lambsquarters plant response rating: 0
lambsquarters; [8]
  Lambsquarters plant response rating: 0
lambsquarters; [9]
  Plant response rating, Lambsquarters: 60
lambsquarters; Preemergence, 250 g ai/ha
  Plant response rating (scale of 0 to 100), Lambsquarters: 70
velvetleaf; [3]
  Plant response rating, Velvetleaf: 0
velvetleaf; [4]
  Plant response rating, Velvetleaf: 0
velvetleaf; [5]
  Plant response rating, Velvetleaf: 0
velvetleaf; [6]
  Plant response rating, Velvetleaf: 0
velvetleaf; [7]
  Velvetleaf plant response rating: 0
velvetleaf; [8]
  Velvetleaf plant response rating: 0
velvetleaf; [9]
  Plant response rating, Velvetleaf: 0
velvetleaf; Preemergence, 250 g ai/ha
  Plant response rating (scale of 0 to 100), Velvetleaf: 0
waterhemp; [3]
  Plant response rating, Waterhemp: 0
waterhemp; [4]
  Plant response rating, Waterhemp: 0
waterhemp; [5]
  Plant response rating, Waterhemp: 0
waterhemp; [6]
  Plant response rating, Waterhemp: 10
waterhemp; [7]
  Waterhemp plant response rating: 0
waterhemp; [8]
  Waterhemp plant response rating: 0
waterhemp; [9]
  Plant response rating, Waterhemp: 85
waterhemp; Preemergence, 250 g ai/ha
  Plant response rating (scale of 0 to 100), Waterhemp: 75
corn; [3]
  Plant response rating, Corn: 0
corn; [4]
  Plant response rating, Corn: 0
corn; [5]
  Plant response rating, Corn: 0
corn; [6]
  Plant response rating, Corn: 5
corn; [7]
  Corn plant response rating: 0
corn; [8]
  Corn plant response rating: 0
corn; [9]
  Plant response rating, Corn: 55
corn; Preemergence, 250 g ai/ha
  Plant response rating (scale of 0 to 100), Corn: 30
foxtail, giant; [3]
  Plant response rating, Foxtail, Giant: 20
foxtail, giant; [4]
  Plant response rating, Foxtail, Giant: 0
foxtail, giant; [5]
  Plant response rating, Foxtail, Giant: 65
foxtail, giant; [6]
  Plant response rating, Foxtail, Giant: 75
foxtail, giant; [7]
  Foxtail, Giant plant response rating: 85
foxtail, giant; [8]
  Foxtail, Giant plant response rating: 90
foxtail, giant; [9]
  Plant response rating, Foxtail, Giant: 90
foxtail, giant; Preemergence, 250 g ai/ha
  Plant response rating (scale of 0 to 100), Foxtail, Giant: 98
wheat; [10]
  Plant response rating, Wheat: 0
wheat; Postemergence, 500 g ai/ha
  Wheat plant response rating (0 to 100 scale, 0 is no effect, 100 is complete control): 60
Pigweed [1]; [3]
  Plant response rating, Pigweed: 0
Pigweed [1]; [4]
  Plant response rating, Pigweed: 10
Pigweed [1]; [5]
  Plant response rating, Pigweed: 10
Pigweed [1]; [6]
  Plant response rating, Pigweed: 20
Pigweed [1]; [7]
  Pigweed plant response rating: 0
Pigweed [1]; [8]
  Pigweed plant response rating: 0
Pigweed [1]; [9]
  Plant response rating, Pigweed: 0
Pigweed [1]; Preemergence, 250 g ai/ha
  Plant response rating (scale of 0 to 100), Pigweed: 0
Pigweed [2]; 125 g ai/ha, visual rating, 0 to 100 scale, 0 no effect, 100 complete control, approximately 10 days, preemergence
  Plant response rating, Pigweed: 0
Pigweed [2]; [10]
  Plant response rating, Pigweed: 0
Pigweed [2]; Postemergence, 500 g ai/ha
  Pigweed plant response rating (0 to 100 scale, 0 is no effect, 100 is complete control): 0
Pigweed [2]; [11]
  Plant response rating, Pigweed: 20
nutsedge, yellow; [3]
  Plant response rating, Nutsedge, Yellow: 10
nutsedge, yellow; [4]
  Plant response rating, Nutsedge, Yellow: 0
nutsedge, yellow; [5]
  Plant response rating, Nutsedge, Yellow: 0
nutsedge, yellow; [6]
  Plant response rating, Nutsedge, Yellow: 0
nutsedge, yellow; [7]
  Nutsedge, Yellow plant response rating: 0
nutsedge, yellow; [8]
  Nutsedge, Yellow plant response rating: 0
nutsedge, yellow; [9]
  Plant response rating, Nutsedge, Yellow: 0
nutsedge, yellow; Preemergence, 250 g ai/ha
  Plant response rating (scale of 0 to 100), Nutsedge, Yellow: 0

## O=C1NCC(c2ccc(C(F)(F)F)c(F)c2)C1C(=O)Nc1cccc(F)c1F (racemic) [Compound 247]
galium; [7]
  Galium plant response rating: 90
galium; [8]
  Galium plant response rating: 90
galium; [9]
  Plant response rating, Galium: 90
galium; Preemergence, 250 g ai/ha
  Plant response rating (scale of 0 to 100), Galium: 90
Oilseed rape; [7]
  Oilseed Rape plant response rating: 5
Oilseed rape; [8]
  Oilseed Rape plant response rating: 30
Oilseed rape; [9]
  Plant response rating, Oilseed Rape: 30
Oilseed rape; Preemergence, 250 g ai/ha
  Plant response rating (scale of 0 to 100), Oilseed Rape: 80
johnsongrass; [7]
  Johnsongrass plant response rating: 0
johnsongrass; [8]
  Johnsongrass plant response rating: 0
johnsongrass; [9]
  Plant response rating, Johnsongrass: 10
johnsongrass; Preemergence, 250 g ai/ha
  Plant response rating (scale of 0 to 100), Johnsongrass: 5
lambsquarters; [7]
  Lambsquarters plant response rating: 0
lambsquarters; [8]
  Lambsquarters plant response rating: 90
lambsquarters; [9]
  Plant response rating, Lambsquarters: 70
lambsquarters; Preemergence, 250 g ai/ha
  Plant response rating (scale of 0 to 100), Lambsquarters: 80
velvetleaf; [7]
  Velvetleaf plant response rating: 0
velvetleaf; [8]
  Velvetleaf plant response rating: 20
velvetleaf; [9]
  Plant response rating, Velvetleaf: 30
velvetleaf; Preemergence, 250 g ai/ha
  Plant response rating (scale of 0 to 100), Velvetleaf: 25
waterhemp; [7]
  Waterhemp plant response rating: 70
waterhemp; [8]
  Waterhemp plant response rating: 100
waterhemp; [9]
  Plant response rating, Waterhemp: 100
waterhemp; Preemergence, 250 g ai/ha
  Plant response rating (scale of 0 to 100), Waterhemp: 85
corn; [7]
  Corn plant response rating: 5
corn; [8]
  Corn plant response rating: 15
corn; [9]
  Plant response rating, Corn: 60
corn; Preemergence, 250 g ai/ha
  Plant response rating (scale of 0 to 100), Corn: 60
foxtail, giant; [7]
  Foxtail, Giant plant response rating: 95
foxtail, giant; [8]
  Foxtail, Giant plant response rating: 95
foxtail, giant; [9]
  Plant response rating, Foxtail, Giant: 98
foxtail, giant; Preemergence, 250 g ai/ha
  Plant response rating (scale of 0 to 100), Foxtail, Giant: 100
wheat; [10]
  Plant response rating, Wheat: 0
wheat; [12]
  Plant response rating, Wheat: 30
wheat; [13]
  Plant response rating, Wheat: 0
wheat; [11]
  Plant response rating, Wheat: 0
Pigweed [1]; [7]
  Pigweed plant response rating: 0
Pigweed [1]; [8]
  Pigweed plant response rating: 55
Pigweed [1]; [9]
  Plant response rating, Pigweed: 85
Pigweed [1]; Preemergence, 250 g ai/ha
  Plant response rating (scale of 0 to 100), Pigweed: 90
Pigweed [2]; [10]
  Plant response rating, Pigweed: 0
Pigweed [2]; [12]
  Plant response rating, Pigweed: 0
Pigweed [2]; [13]
  Plant response rating, Pigweed: 0
Pigweed [2]; [11]
  Plant response rating, Pigweed: 0
nutsedge, yellow; [7]
  Nutsedge, Yellow plant response rating: 0
nutsedge, yellow; [8]
  Nutsedge, Yellow plant response rating: 20
nutsedge, yellow; [9]
  Plant response rating, Nutsedge, Yellow: 20
nutsedge, yellow; Preemergence, 250 g ai/ha
  Plant response rating (scale of 0 to 100), Nutsedge, Yellow: 0
